Legend:
JAK1 = target: T1, JAK1 (Homo sapiens, UniProt P23458); experiment: Biochemical JAK kinase assay (LanthaScreen), JAK1; conditions: converted from pIC50 by Cheng-Prusoff; 25 μM ATP; read-out: JAK 1 pKi (converted)
T1 construct: GST; purchased Life Technologies
Experimental: A panel of four LanthaScreen JAK biochemical assays (JAK1, 2, 3 and Tyk2) were carried in a common kinase reaction buffer (50 mM HEPES, pH 7.5, 0.01% Brij-35, 10 mM MgCl2, and 1 mM EGTA). Recombinant GST-tagged JAK enzymes and a GFP-tagged STAT1 peptide substrate were obtained from Life Technologies.
Serially diluted compound was pre-incubated with each of the four JAK enzymes and the substrate in white 384-well microplates (Corning) at ambient temperature for 1 h. ATP was subsequently added to initiate the kinase reactions in 10 μL total volume, with 1% DMSO. […] The plates were allowed to incubate at ambient temperature for 1 h before being read on the EnVision reader (Perkin Elmer). Emission ratio signals (520 nm/495 nm) were recorded and utilized to calculate the percent inhibition values based on DMSO and background controls.
For dose-response analysis, percent inhibition data were plotted vs. compound concentrations, and IC50 values were determined from a 4-parameter robust fit model with the Prism software (GraphPad Software). Results were expressed as pIC50 (negative logarithm of IC50) and subsequently converted to pKi (negative logarithm of dissociation constant, Ki) using the Cheng-Prusoff equation.

VEGFR2 = target: T2, VEGFR2 (Homo sapiens, UniProt P35968); experiment: Kinome screen, VEGFR2; type: binding; conditions: screened at 1 μM
T2 construct: made in house; host or cells: E. coli BL21-derived host (T7 phage) or HEK-293 cells
Experimental: Compounds 1 and C-1 were screened against other kinases to evaluate their selectivity profile.
Kinase-tagged T7 phage strains were grown in parallel in 24-well blocks in an E. coli host derived from the BL21 strain. E. coli were grown to log-phase and infected with T7 phage from a frozen stock (multiplicity of infection=0.4) and incubated with shaking at 32° C. until lysis (90-150 minutes). The lysates were centrifuged (6,000×g) and filtered (0.2 μm) to remove cell debris. The remaining kinases were produced in HEK-293 cells and subsequently tagged with DNA for qPCR detection.
Streptavidin-coated magnetic beads were treated with biotinylated small molecule ligands for 30 minutes at room temperature to generate affinity resins for kinase assays. The liganded beads were blocked with excess biotin and washed with blocking buffer (SeaBlock (Pierce), 1% BSA, 0.05% Tween 20, 1 mM DTT) to remove unbound ligand and to reduce non-specific phage binding. Binding reactions were assembled by combining kinases, liganded affinity beads, and test compounds in 1× binding buffer (20% SeaBlock, 0.17×PBS, 0.05% Tween 20, 6 mM DTT). Test compounds were prepared as 40× stocks in 100% DMSO and directly diluted into the assay. All reactions were performed in polypropylene 384-well plates in a final volume of 0.04 ml. […] The kinase concentration in the eluates was measured by qPCR. […]

[1] = tested on: IL-13 induced STAT6 phosphorylation in BEAS-2B human lung epithelial cells; experiment: Inhibition of IL-13 stimulated pSTAT6 in BEAS-2B cells; type: cell-based; conditions: AlphaScreen, read-out: pIC50, inhibition of IL-13 stimulated pSTAT6 (converted)
Experimental: The AlphaScreen JAKI cellular potency assay was carried out by measuring interleukin-13 (IL-13, R&D Systems) induced STAT6 phosphorylation in BEAS-2B human lung epithelial cells (ATCC). The anti-STAT6 antibody (Cell Signaling Technologies) was conjugated to AlphaScreen acceptor beads (Perkin Elmer), while the anti-pSTAT6 (pTyr641) antibody (Cell Signaling Technologies) was biotinylated using EZ-Link Sulfo-NHS-Biotin (Thermo Scientific).
BEAS-2B cells were grown at 37° C. in a 5% CO2 humidified incubator in 50% DMEM/50% F-12 medium (Life Technologies) supplemented with 10% FBS (Hyclone), 100 U/mL penicillin, 100 μg/mL streptomycin (Life Technologies), and 2 mM GlutaMAX (Life Technologies). On day 1 of the assay, cells were seeded at a 7,500 cells/well density in white poly-D-lysine-coated 384-well plates (Corning) with 25 μL medium, and were allowed to adhere overnight in the incubator. […] After a minimum of 2 h incubation, the assay plates were read on the EnVision plate reader. AlphaScreen luminescence signals were recorded and utilized to calculate the percent inhibition values based on DMSO and background controls.
For dose-response analysis, percent inhibition data were plotted vs. compound concentrations, and IC50 values were determined from a 4-parameter robust fit model with the Prism software. Results may also be expressed as the negative logarithm of the IC50 value, pIC50.

T1 sequence (P23458 whole entry): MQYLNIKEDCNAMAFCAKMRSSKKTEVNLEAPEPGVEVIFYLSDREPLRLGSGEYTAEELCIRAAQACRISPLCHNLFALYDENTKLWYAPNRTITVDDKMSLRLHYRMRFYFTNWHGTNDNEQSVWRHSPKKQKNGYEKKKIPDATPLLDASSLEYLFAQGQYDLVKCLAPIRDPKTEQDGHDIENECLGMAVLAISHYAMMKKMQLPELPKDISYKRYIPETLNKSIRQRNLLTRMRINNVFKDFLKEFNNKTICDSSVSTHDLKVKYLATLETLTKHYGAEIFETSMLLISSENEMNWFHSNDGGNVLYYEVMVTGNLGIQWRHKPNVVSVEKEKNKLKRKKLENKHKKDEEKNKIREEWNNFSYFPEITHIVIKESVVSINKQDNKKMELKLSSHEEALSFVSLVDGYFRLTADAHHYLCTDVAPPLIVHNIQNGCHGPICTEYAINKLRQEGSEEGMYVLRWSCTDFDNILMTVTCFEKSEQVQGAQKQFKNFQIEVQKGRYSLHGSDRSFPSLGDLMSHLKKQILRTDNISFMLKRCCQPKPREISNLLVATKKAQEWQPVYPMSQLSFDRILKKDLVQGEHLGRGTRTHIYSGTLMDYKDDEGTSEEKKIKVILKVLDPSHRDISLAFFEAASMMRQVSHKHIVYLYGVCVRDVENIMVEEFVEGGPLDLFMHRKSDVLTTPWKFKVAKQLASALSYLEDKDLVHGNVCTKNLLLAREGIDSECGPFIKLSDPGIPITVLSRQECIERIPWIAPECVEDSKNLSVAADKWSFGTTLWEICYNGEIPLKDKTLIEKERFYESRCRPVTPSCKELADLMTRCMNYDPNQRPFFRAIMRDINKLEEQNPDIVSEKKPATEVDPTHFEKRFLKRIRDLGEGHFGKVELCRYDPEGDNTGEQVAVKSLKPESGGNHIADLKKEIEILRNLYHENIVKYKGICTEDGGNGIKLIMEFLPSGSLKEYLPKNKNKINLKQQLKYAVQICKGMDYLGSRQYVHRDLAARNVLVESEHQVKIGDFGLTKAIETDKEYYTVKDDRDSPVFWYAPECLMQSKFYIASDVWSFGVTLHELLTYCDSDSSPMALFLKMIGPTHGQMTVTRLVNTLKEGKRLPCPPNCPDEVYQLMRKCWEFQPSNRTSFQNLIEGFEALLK
T2 sequence (P35968 20-1356): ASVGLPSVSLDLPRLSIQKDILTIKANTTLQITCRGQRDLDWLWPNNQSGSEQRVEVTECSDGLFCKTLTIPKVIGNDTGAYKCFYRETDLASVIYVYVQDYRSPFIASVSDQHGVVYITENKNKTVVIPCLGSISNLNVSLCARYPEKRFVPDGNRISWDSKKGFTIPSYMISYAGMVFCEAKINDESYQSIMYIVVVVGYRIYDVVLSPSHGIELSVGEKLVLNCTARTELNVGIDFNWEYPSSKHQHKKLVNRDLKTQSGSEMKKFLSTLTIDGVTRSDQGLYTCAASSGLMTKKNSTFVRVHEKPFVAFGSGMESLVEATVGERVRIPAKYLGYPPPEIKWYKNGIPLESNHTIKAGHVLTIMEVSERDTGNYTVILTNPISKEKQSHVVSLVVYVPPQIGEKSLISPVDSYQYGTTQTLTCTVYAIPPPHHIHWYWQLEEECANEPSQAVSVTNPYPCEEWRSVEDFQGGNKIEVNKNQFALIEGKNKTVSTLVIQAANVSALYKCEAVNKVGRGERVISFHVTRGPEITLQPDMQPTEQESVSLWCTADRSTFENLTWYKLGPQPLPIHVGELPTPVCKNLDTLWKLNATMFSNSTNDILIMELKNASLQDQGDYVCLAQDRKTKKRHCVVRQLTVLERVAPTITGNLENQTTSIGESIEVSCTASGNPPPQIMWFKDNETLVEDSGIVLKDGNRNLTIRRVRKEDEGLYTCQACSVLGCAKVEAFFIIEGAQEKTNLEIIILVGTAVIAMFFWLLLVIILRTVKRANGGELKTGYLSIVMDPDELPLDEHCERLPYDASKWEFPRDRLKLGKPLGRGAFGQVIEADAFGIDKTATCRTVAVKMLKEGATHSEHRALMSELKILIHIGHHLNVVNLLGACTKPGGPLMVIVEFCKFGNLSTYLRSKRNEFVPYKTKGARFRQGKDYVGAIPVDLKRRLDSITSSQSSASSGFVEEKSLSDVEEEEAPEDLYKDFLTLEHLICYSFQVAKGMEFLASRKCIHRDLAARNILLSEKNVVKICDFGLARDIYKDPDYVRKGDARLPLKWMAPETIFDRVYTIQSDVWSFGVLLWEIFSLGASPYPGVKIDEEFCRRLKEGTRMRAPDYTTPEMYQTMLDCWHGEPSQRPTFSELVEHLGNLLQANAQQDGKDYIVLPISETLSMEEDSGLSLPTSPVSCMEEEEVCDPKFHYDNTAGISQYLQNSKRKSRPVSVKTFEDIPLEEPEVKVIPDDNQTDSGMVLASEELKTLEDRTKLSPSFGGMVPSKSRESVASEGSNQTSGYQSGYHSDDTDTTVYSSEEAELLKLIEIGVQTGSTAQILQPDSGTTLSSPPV

CCc1cc(O)c(F)cc1-c1cc(F)c2c(-c3nc4c([nH]3)CCN(C(=O)[C@]35C[C@H]3CCN5)C4)n[nH]c2c1 [Compound 1, (1S,5R)-2-azabicyclo[3.1.0]hexan-1-yl(2-(6-(2-ethyl-5-fluoro-4-hydroxyphenyl)-4-fluoro-1H-indazol-3-yl)-6,7-dihydro-3H-imidazo[4,5-c]pyridin-5(4H)-yl)methanone]
Ki (JAK1): 0.126 nM
inhibition at 1 µM (VEGFR2): 47%
IC50 [1]: 10 nM
